Assays:
human CYP11B2 = biological target: T1, human CYP11B2 (Homo sapiens, UniProt P19099); assay: Inhibition of hCYP11B2 in transfected V79 cells; format: cell-based; conditions: hamster V79 cells expressing human CYP11B2; substrate 11-deoxycorticosterone 200 nM
T1 construct: expressed in transfected cells
T1 sequence (P19099 25-503): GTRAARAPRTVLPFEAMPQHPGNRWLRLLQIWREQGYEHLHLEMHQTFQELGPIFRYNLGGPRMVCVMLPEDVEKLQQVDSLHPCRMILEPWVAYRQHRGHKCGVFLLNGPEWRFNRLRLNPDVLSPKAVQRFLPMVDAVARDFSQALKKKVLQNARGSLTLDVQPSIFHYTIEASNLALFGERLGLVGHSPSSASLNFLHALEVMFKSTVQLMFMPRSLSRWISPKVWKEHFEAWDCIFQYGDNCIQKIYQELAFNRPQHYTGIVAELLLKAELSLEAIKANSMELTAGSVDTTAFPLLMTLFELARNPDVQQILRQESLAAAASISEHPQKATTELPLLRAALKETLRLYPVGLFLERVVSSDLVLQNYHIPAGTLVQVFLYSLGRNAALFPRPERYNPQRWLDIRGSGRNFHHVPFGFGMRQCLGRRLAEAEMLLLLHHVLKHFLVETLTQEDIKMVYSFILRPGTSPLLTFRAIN
In short: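 Hamster V79 cells stably co-expressing human CYP11B2 and rat NADPH-P450 reductase were pre-incubated with compounds for 2 hours, then given 200 nM 11-deoxycorticosterone for 30 minutes before ethyl acetate quench. Substrate and product were quantified by LC-MS/MS or HPLC at 260 nm, and IC50 was derived from percent inhibition.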

human CYP11B1 = biological target: T2, human CYP11B1 (Homo sapiens, UniProt P15538); assay: Inhibition of hCYP11B1 in transfected V79 cells; format: cell-based; conditions: hamster V79 cells expressing human CYP11B1; substrate 11-deoxycortisol 200 nM
T2 construct: expressed in transfected cells
T2 sequence (P15538 25-503): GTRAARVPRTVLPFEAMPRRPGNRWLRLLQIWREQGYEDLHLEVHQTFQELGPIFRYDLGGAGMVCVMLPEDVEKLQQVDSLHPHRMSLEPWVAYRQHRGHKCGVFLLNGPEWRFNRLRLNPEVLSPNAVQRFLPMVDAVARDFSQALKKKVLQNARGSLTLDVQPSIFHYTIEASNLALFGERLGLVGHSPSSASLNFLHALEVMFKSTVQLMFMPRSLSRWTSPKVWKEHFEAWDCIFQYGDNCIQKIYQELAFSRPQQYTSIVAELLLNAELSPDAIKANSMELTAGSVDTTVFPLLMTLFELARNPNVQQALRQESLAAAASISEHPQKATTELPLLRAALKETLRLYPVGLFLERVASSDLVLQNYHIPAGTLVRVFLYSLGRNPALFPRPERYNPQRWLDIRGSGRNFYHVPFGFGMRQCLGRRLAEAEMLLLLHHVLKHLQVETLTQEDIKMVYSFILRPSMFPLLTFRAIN
In short: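 V79 hamster cells stably expressing human CYP11B1 and rat NADPH-P450 reductase were preincubated with compounds for 2 h. 11-Deoxycortisol (200 nM) was then added as substrate for 30 min before ethyl acetate quench. Substrate and product were quantified by LC-MS/MS or HPLC at 260 nm, and IC50 was derived from percent inhibition.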

Row | IC50 (human CYP11B2) | IC50 (human CYP11B1) | Structure (SMILES)
1 | 0.4 nM | 19 nM | N#Cc1ccc(-c2cncc3c2SCCN3S(=O)(=O)C2CN(Cc3cccc(C#N)c3)C2)cc1 [S81, 3-((3-((8-(4-Cyanophenyl)-2,3-dihydro-4H-pyrido[4,3-b][1,4]thiazin-4-yl)sulfonyl)azetidin-1-yl)methyl)benzonitrile]
2 | 0.4 nM | 9.4 nM | N#Cc1ccc(-c2cncc3c2SCCN3S(=O)(=O)C2CN(Cc3ccc(F)cc3)C2)cc1 [S82, 4-(4-((1-(4-Fluorobenzyl)azetidin-3-yl)sulfonyl)-3,4-dihydro-2H-pyrido[4,3-b][1,4]thiazin-8-yl)benzonitrile]
3 | 0.8 nM | 21 nM | N#Cc1ccc(-c2cncc3c2SCCN3S(=O)(=O)C2CN(Cc3cccc(F)c3)C2)cc1 [S83, 4-(4-((1-(3-Fluorobenzyl)azetidin-3-yl)sulfonyl)-3,4-dihydro-2H-pyrido[4,3-b][1,4]thiazin-8-yl)benzonitrile]
4 | 1.1 nM | 57 nM | COc1ccc(CN2CC(S(=O)(=O)N3CCSc4c(-c5ccc(C#N)cc5)cncc43)C2)cc1 [S84, 4-(4-((1-(4-Methoxybenzyl)azetidin-3-yl)sulfonyl)-3,4-dihydro-2H-pyrido[4,3-b][1,4]thiazin-8-yl)benzonitrile]
5 | 0.9 nM | 37 nM | COc1cccc(CN2CC(S(=O)(=O)N3CCSc4c(-c5ccc(C#N)cc5)cncc43)C2)c1 [S85, 4-(4-((1-(3-Methoxybenzyl)azetidin-3-yl)sulfonyl)-3,4-dihydro-2H-pyrido[4,3-b][1,4]thiazin-8-yl)benzonitrile]
6 | 22 nM | 1540 nM | CC(=O)Nc1ccccc1C(=O)N1CCSc2c(-c3ccc(C#N)cc3)cncc21 [S86, N-(2-(8-(4-Cyanophenyl)-3,4-dihydro-2H-pyrido[4,3-b][1,4]thiazine-4-carbonyl)phenyl) acetamide]
7 | 12 nM | 522 nM | N#Cc1ccc(-c2cncc3c2SCCN3C(=O)c2cccc(C(F)(F)F)c2)cc1 [S87, 4-(4-(3-(Trifluoromethyl)benzoyl)-3,4-dihydro-2H-pyrido[4,3-b][1,4]thiazin-8-yl)benzonitrile]
8 | 6.8 nM | 251 nM | N#Cc1ccc(-c2cncc3c2SCCN3C(=O)c2ccc(C(F)(F)F)cc2)cc1 [S88, 4-(4-(4-(Trifluoromethyl)benzoyl)-3,4-dihydro-2H-pyrido[4,3-b][1,4]thiazin-8-yl)benzonitrile]
9 | 43 nM | 2850 nM | Cc1ccc(C(=O)N2CCSc3c(-c4ccc(C#N)cc4)cncc32)cc1 [S89, 4-(4-(4-Methylbenzoyl)-3,4-dihydro-2H-pyrido[4,3-b][1,4]thiazin-8-yl)benzonitrile]
10 | 64 nM | 4440 nM | Cc1ccccc1C(=O)N1CCSc2c(-c3ccc(C#N)cc3)cncc21 [S90, 4-(4-(2-Methylbenzoyl)-3,4-dihydro-2H-pyrido[4,3-b][1,4]thiazin-8-yl)benzonitrile]
11 | 44 nM | 3650 nM | Cc1cccc(C(=O)N2CCSc3c(-c4ccc(C#N)cc4)cncc32)c1 [S91, 4-(4-(3-Methylbenzoyl)-3,4-dihydro-2H-pyrido[4,3-b][1,4]thiazin-8-yl)benzonitrile]
12 | 13 nM | 856 nM | N#Cc1ccc(-c2cncc3c2SCCN3C(=O)c2ccc(Cl)cc2)cc1 [S92, 4-(4-(4-Chlorobenzoyl)-3,4-dihydro-2H-pyrido[4,3-b][1,4]thiazin-8-yl)benzonitrile]
13 | 24 nM | 1310 nM | N#Cc1ccc(-c2cncc3c2SCCN3C(=O)c2cccc(Cl)c2)cc1 [S93, 4-(4-(3-Chlorobenzoyl)-3,4-dihydro-2H-pyrido[4,3-b][1,4]thiazin-8-yl)benzonitrile]
14 | 38 nM | 2660 nM | N#Cc1ccc(C(=O)N2CCSc3c(-c4ccc(C#N)cc4)cncc32)cc1 [S94, 4-(4-(4-Cyanobenzoyl)-3,4-dihydro-2H-pyrido[4,3-b][1,4]thiazin-8-yl)benzonitrile]
15 | 79 nM | 2060 nM | N#Cc1ccc(-c2cncc3c2SCCN3C(=O)c2cccc(C#N)c2)cc1 [S95, 3-(8-(4-Cyanophenyl)-3,4-dihydro-2H-pyrido[4,3-b][1,4]thiazine-4-carbonyl)benzonitrile]
16 | 11 nM | 643 nM | COc1cccc(C(=O)N2CCSc3c(-c4ccc(C#N)cc4)cncc32)c1 [S96, 4-(4-(3-Methoxybenzoyl)-3,4-dihydro-2H-pyrido[4,3-b][1,4]thiazin-8-yl)benzonitrile]
17 | 21 nM | 4210 nM | COc1ccc(C(=O)N2CCSc3c(-c4ccc(C#N)cc4)cncc32)cc1 [S97, 4-(4-(4-Methoxybenzoyl)-3,4-dihydro-2H-pyrido[4,3-b][1,4]thiazin-8-yl)benzonitrile]
18 | 11 nM | 1160 nM | COc1ccc(C(=O)N2CCSc3c(-c4cc5cc(C#N)ccc5o4)cncc32)cc1 [S98, 2-(4-(4-Methoxybenzoyl)-3,4-dihydro-2H-pyrido[4,3-b][1,4]thiazin-8-yl)benzofuran-5-carbonitrile]
19 | 6.9 nM | 703 nM | N#Cc1ccc(-c2cncc3c2SCC(=O)N3)cc1 [S99, 4-(3-Oxo-3,4-dihydro-2H-pyrido[4,3-b][1,4]thiazin-8-yl)benzonitrile]
20 | 10.6 nM | 966 nM | N#Cc1ccc(-c2cncc3c2SCC(=O)N3C(=O)c2ccc(Cl)cc2)cc1 [S100, 4-(4-(4-chlorobenzoyl)-3-oxo-3,4-dihydro-2H-pyrido[4,3-b][1,4]thiazin-8-yl)benzonitrile]
21 | 25 nM | 2670 nM | N#CC1CN(S(=O)(=O)N2CCSc3c(-c4cc5cc(Cl)ccc5o4)cncc32)C1 [S101, 1-((8-(5-Chlorobenzofuran-2-yl)-2,3-dihydro-4H-pyrido[4,3-b][1,4]thiazin-4-yl)sulfonyl) azetidine-3-carbonitrile]
22 | 36 nM | 3710 nM | O=S(=O)(N1CCn2cnnc2C1)N1CCSc2c(-c3cc4cc(Cl)ccc4o3)cncc21 [S102, 8-(5-Chlorobenzofuran-2-yl)-4-((5,6-dihydro-[1,2,4]triazolo[4,3-a]pyrazin-7 (8H)-yl)sulfonyl)-3,4-dihydro-2H-pyrido[4,3-b][1,4]thiazine]
23 | 5 nM | 955 nM | O=S(=O)(C1CN(C2COC2)C1)N1CCSc2c(-c3cc4cc(Cl)ccc4o3)cncc21 [S103, 8-(5-Chlorobenzofuran-2-yl)-4-((1-(oxetan-3-yl)azetidin-3-yl)sulfonyl)-3,4-dihydro-2H-pyrido[4,3-b][1,4]thiazine]

— patent publication US20260092074A1, “Annelated Pyridines as Steroidogenesis Inhibitors, Preparation Method and Use Thereof” (Guangzhou Vinnocent Pharmaceutical Limited, priority 2022, published 2026)
